Measurements reported in patent EP0563386A1, “ANTICANCER COMPOSITION AND COMPOUND” (NIPPON SHINYAKU COMPANY, LIMITED, priority 1990, dated 1992).

Assays:
[1] = tested on: Meth A fibrosarcoma; assay: Meth A fibrosarcoma tumor volume in mice (Test Example 2); format: in vivo, BALB/c mice; settings: Test (2): start tumor volume 160-180 mm³; irsogladine maleate 10 mg/kg or 5-fluorouracil 30 mg/kg orally; Fig. 2
Method: • (1) The homologus tumor Meth A fibrosarcoma subcultured (ascites type) in BALB/c mice, 5 x 10^5 cells, was transplanted subcutaneously at the flank of 6-week-old male BALB/c mice. Mice having a tumor volume of 70-100 mm³ were selected and divided into groups of 9. Oral single daily administration of the test compound was started and the body weight and tumor volume were serially determined. The volume was determined using the same calculation formula as shown in Test Example 1. The compound of the invention irsogladine maleate, 10 mg/kg, suspended in 0.5% methylcellulose maleate and 5-fluorouracil, 15 mg/kg, dissolved in 0.5% methylcellulose solution were respectively administered orally. The control group received 0.5% methylcellulose solution orally. […] The effect of the com pound of this invention as an anticancer agent is, thus, clear. • (2) As in the above test, mice having a tumor volume of 160-180 mm³ were selected and subjected to the same test as above. The compound of this invention irsogladine maleate, 10 mg/kg, 5-flurorouracil, 30 mg/kg, or as a combination therapy, irsogladine maleate, 10 mg/kg, plus 5-fluorouracil, 30 mg/kg, were administered orally. The control group received the same control material as in the above test orally. […] The anticancer adjuvant activity of the compound of this invention to 5-FU is clear.
The open circle stands for control, the open triangle for 5-FU and the closed circle for the compound of the invention. The tumor volume (mm³) is plotted on the vertical axis and the number of days after drug administration on the horizontal axis.
The open circle stands for control, the open triangle for F-5U, the closed circle for the compound of the invention, the open square for the combination therapy. The tumor volume (mm³) is plotted on the vertical axis and the number of days after drug administration on the horizontal axis.

[2] = tested on: WiDr (human colon cancer); assay: Tumor growth inhibition, WiDr implant in nude mice (Test Example 1); format: in vivo, BALB/c nude mice; settings: implant volume on day 18 after transplantation divided by volume at transplantation; irsogladine maleate 10 mg/kg orally once daily from day 14; cyclophosphamide 150 mg/kg intraperitoneally once on day 14; groups of 10
Method: WiDr (human colon cancer) cells subcultured in BALB/c nude mice were dissected to prepare cubes, about 2 mm³ each. These cubes were transplanted subaxillarily into separate BALB/c nude mice using a transplantation needle. The animals were divided into groups of 10 individuals on day 10 after transplantation and the body weight and the diameter of the implant were serially determined. As the compound of this invention, irsogladine maleate, 10 mg/kg, was suspended in 0.5% methylcellulose solution and administered orally once daily beginning day 14 after transplantation. Cyclophosphamide, 150 mg/kg, was dissolved in PBS and administered intraperitoneally once on day 14 after transplantation. The control group received 0.5% methylcellulose solution orally once daily beginning day 14 after transplantation.
The volume of the implant on day 18 after transplantation was divided by the volume at trans plantation. […]
The effect of the compound of this invention as an anticancer agent is clear.

Compound | tumor-inhibitory effect, single drug [1] | Tumor volume ratio [2]
O=c1[nH]cc(F)c(=O)[nH]1 [5-FU, 5-fluorouracil, reference compound] | tumor-inhibitory effect | 
O=P1(N(CCCl)CCCl)NCCCO1 (centres unmarked) [Cyclophosphamide, reference compound] |  | 1.52 ± 0.06
